Source: paper PMC7011792 (Journal of Enzyme Inhibition and Medicinal Chemistry, 2017)

How the values were obtained:
[1] = target: T1, AChE (EC 3.1.1.7) from electric eel (Electrophorus electricus, UniProt O42275); assay: biochemical; settings: for IC50: AChE from electric eel, mean ± SEM of three experiments; for Selectivity index (SI) = BuChE IC50/AChE IC50: eqBuChE IC50 / eeAChE IC50
T1 construct: purchased Sigma-Aldrich C3389
Experimental: (§1) AChE (EC 3.1.1.7, Type VI-S, from electric eel, C3389; from human, C1682) and BuChE (EC 3.1.1.8, from equine serum, C0663; from human, B4186), 5,5'-dithiobis (2-nitrobenzoic acid) (DTNB, D218200), acetylthiocholine iodide (ATC, A5751), and butyrylthiocholine iodide (BTC, B3253) were obtained from Sigma-Aldrich (St. Louis, MO).
(§2) The inhibitory effects of the synthesised compounds in this paper were evaluated according to our previously reported method. […] ATC/BTC iodide solution (0.075 M) was prepared in deionised water. […] The assay buffer was prepared as follows: potassium dihydrogen phosphate (1.36 g, 10 mmol) was dissolved in 100 ml of water. The pH of the solution was then adjusted to 8.0 ± 0.1 with KOH. Stock solutions of the test samples were dissolved in ethanol to give a final concentration of 10^−4 M when diluted to the final volume of 3.32 ml. For each compound, a dilution series of at least five different concentrations (normally 10^−5–10^−9 M) were prepared.
(§3) For measurement, a cuvette containing 3.0 ml of phosphate buffer, 100 µL of AChE or BuChE, 100 µL of DTNB, and 100 µL of the test compound solution were added in sequence. The reaction was initiated after adding 20 µL of ATC or BTC, and the solution was mixed immediately. […] For the reference value, 100 µL of water replaced the test compound solution. For the blank control, additionally 100 µL of water replaced the enzyme solution. The measurement for each concentration was assayed in triplicate. GraphPad Prism 5 was used for data processing. The inhibition curve was fitted by plotting percentage enzyme activity (100% for the reference) versus logarithm of test compound concentration. The IC50 values were calculated according to the curve, and the data were shown in mean ± SEM.
(§4) The inhibitory effects on ChEs of all the target compounds were determined according to Ellman’s method. AChE from electrophorus electricus (eeAChE) and BuChE from equine serum (eqBuChE) were used in the assays.

[2] = target: T2, BuChE (EC 3.1.1.8) from horse serum (Equus caballus, UniProt P81908); assay: biochemical; type: biochemical; settings: for IC50: BuChE from horse serum, mean ± SEM of three experiments; for selective index (selectivity on BuChE): selectivity on BuChE over AChE (eeAChE, eqBuChE)
T2 construct: purchased Sigma-Aldrich C0663; host or cells: equine serum
T2 sequence (P81908 whole entry): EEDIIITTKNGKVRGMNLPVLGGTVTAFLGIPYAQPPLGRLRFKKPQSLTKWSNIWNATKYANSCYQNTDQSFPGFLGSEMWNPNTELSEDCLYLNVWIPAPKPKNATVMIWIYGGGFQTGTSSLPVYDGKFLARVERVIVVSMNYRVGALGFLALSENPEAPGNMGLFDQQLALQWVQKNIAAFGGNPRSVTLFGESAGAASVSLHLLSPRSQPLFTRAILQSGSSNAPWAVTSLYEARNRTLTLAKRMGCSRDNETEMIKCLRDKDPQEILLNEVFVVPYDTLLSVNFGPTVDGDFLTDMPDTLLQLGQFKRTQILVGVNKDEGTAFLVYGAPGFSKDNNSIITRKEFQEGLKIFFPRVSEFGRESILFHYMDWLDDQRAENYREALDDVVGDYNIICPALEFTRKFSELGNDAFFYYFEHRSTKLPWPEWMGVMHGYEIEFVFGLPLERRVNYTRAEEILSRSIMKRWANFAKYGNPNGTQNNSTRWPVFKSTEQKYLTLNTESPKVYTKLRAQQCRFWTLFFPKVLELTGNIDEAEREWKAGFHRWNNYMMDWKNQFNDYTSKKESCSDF
Experimental: as §1, §2, §3, §4

T1 sequence (O42275 24-633): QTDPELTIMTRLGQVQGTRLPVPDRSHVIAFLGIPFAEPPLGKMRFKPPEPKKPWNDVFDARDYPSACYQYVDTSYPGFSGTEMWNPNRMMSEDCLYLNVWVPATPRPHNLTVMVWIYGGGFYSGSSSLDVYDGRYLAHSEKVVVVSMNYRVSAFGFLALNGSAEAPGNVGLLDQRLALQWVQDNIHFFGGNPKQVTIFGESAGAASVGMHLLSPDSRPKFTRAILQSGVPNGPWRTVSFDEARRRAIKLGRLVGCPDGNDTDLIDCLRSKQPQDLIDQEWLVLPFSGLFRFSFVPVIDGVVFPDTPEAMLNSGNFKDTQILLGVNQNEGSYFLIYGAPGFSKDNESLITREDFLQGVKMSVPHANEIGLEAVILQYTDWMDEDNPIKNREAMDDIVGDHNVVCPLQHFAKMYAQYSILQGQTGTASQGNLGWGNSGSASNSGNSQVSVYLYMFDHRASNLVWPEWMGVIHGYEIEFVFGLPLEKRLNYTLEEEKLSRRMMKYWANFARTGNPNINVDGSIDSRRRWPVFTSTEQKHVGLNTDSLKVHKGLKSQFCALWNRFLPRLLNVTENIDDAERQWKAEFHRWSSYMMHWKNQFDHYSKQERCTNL

SMILES | IC50 [1] [nM] | Selectivity index (SI) = BuChE IC50/AChE IC50 [1] | IC50 [2] [nM] | selective index (selectivity on BuChE) [2]
O=C(/C=C/c1ccccc1)NCCNc1c2c(nc3ccccc13)CCCC2 [Compound 9] | 328 ± 122 | 0.2 | 69.1 ± 27.3 | –
O=C(/C=C/c1ccccc1)NCCCNc1c2c(nc3ccccc13)CCCC2 [Compound 10] | 100 ± 5.2 | 0.03 | 3.5 ± 0.4 | 28.7
O=C(C=Cc1ccccc1)NCCCCNc1c2c(nc3ccccc13)CCCC2 [Compound 11, N-(4-((1,2,3,4-tetrahydroacridin-9-yl)amino)butyl)cinnamamide] | 209 ± 76 | 0.01 | 2.9 ± 0.4 | 71.17
O=C(C=Cc1ccccc1)NCCCCCCNc1c2c(nc3ccccc13)CCCC2 [Compound 12, N-(6-((1,2,3,4-tetrahydroacridin-9-yl)amino)hexyl)cinnamamide] | 26.5 ± 10.7 | 1.3 | 34.4 ± 16.6 | –
O=C(/C=C/c1ccccc1)NCCCCCCCCNc1c2c(nc3ccccc13)CCCC2 [Compound 13] | 22.8 ± 9.2 | 0.3 | 7.8 ± 4.7 | –
Cc1ccccc1/C=C/C(=O)NCCCCCCNc1c2c(nc3ccccc13)CCCC2 [Compound 14, (E)-N-(6-((1,2,3,4-tetrahydroacridin-9-yl)amino)hexyl)-3-(o-tolyl)acrylamide] | 36 ± 12.3 | 0.2 | 6 ± 1.5 | –
Cc1cccc(/C=C/C(=O)NCCCCCCNc2c3c(nc4ccccc24)CCCC3)c1 [Compound 15, (E)-N-(6-((1,2,3,4-tetrahydroacridin-9-yl)amino)hexyl)-3-(m-tolyl)acrylamide] | 53.1 ± 6.9 | 0.7 | 37.3 ± 7.2 | –
Cc1ccc(/C=C/C(=O)NCCCCCCNc2c3c(nc4ccccc24)CCCC3)cc1 [Compound 16, (E)-N-(6-((1,2,3,4-tetrahydroacridin-9-yl)amino)hexyl)-3-(p-tolyl)acrylamide] | 22 ± 3.7 | 2.5 | 54.4 ± 11.7 | –
O=C(/C=C/c1ccccc1[N+](=O)[O-])NCCCCCCNc1c2c(nc3ccccc13)CCCC2 [Compound 17, (E)-3-(2-nitrophenyl)-N-(6-((1,2,3,4-tetrahydroacridin-9-yl)amino)hexyl)acrylamide] | 17.5 ± 3.7 | 0.2 | 3.6 ± 0.3 | –
O=C(/C=C/c1cccc([N+](=O)[O-])c1)NCCCCCCNc1c2c(nc3ccccc13)CCCC2 [Compound 18, (E)-3-(3-nitrophenyl)-N-(6-((1,2,3,4-tetrahydroacridin-9-yl)amino)hexyl)acrylamide] | 3.6 ± 0.5 | 1.9 | 6.8 ± 0.6 | –
O=C(/C=C/c1ccc(Cl)c([N+](=O)[O-])c1)NCCCCCCNc1c2c(nc3ccccc13)CCCC2 [Compound 20, (E)-3-(4-chloro-3-nitrophenyl)-N-(6-((1,2,3,4-tetrahydroacridin-9-yl)amino)hexyl)acrylamide] | 6.2 ± 2 | 1.8 | 11.1 ± 2.2 | –
O=C(/C=C/c1ccccc1C(F)(F)F)NCCCCCCNc1c2c(nc3ccccc13)CCCC2 [Compound 21, (E)-N-(6-((1,2,3,4-tetrahydroacridin-9-yl)amino)hexyl)-3–(2-(trifluoromethyl)phenyl)acrylamide] | 41.7 ± 8.5 | 0.04 | 2.4 ± 0.6 | –
O=C(/C=C/c1cccc(C(F)(F)F)c1)NCCCCCCNc1c2c(nc3ccccc13)CCCC2 [Compound 22, (E)-N-(6-((1,2,3,4-tetrahydroacridin-9-yl)amino)hexyl)-3–(3-(trifluoromethyl)phenyl)acrylamide] | 61.3 ± 16.7 | 1.3 | 81.1 ± 15.7 | –
O=C(/C=C/c1ccc(C(F)(F)F)cc1)NCCCCCCNc1c2c(nc3ccccc13)CCCC2 [Compound 23, (E)-N-(6-((1,2,3,4-tetrahydroacridin-9-yl)amino)hexyl)-3–(4-(trifluoromethyl)phenyl)acrylamide] | 8.1 ± 0.3 | 2.0 | 16.4 ± 1.8 | –
O=C(/C=C/c1ccc(F)cc1)NCCCCCCNc1c2c(nc3ccccc13)CCCC2 [Compound 24, (E)-3-(4-fluorophenyl)-N-(6-((1,2,3,4-tetrahydroacridin-9-yl)amino)hexyl)acrylamide] | 15.4 ± 3.3 | 4.3 | 65.9 ± 21.4 | –
O=C(/C=C/c1ccccc1Cl)NCCCCCCNc1c2c(nc3ccccc13)CCCC2 [Compound 25, (E)-3-(2-chlorophenyl)-N-(6-((1,2,3,4-tetrahydroacridin-9-yl)amino)hexyl)acrylamide] | 14.2 ± 3.2 | 0.6 | 8.7 ± 2.7 | –
O=C(/C=C/c1cccc(Cl)c1)NCCCCCCNc1c2c(nc3ccccc13)CCCC2 [Compound 26, (E)-3-(3-chlorophenyl)-N-(6-((1,2,3,4-tetrahydroacridin-9-yl)amino)hexyl)acrylamide] | 16.2 ± 6.5 | 0.6 | 9.2 ± 2.5 | –
O=C(/C=C/c1ccc(Br)cc1)NCCCCCCNc1c2c(nc3ccccc13)CCCC2 [Compound 28, (E)-3-(4-bromophenyl)-N-(6-((1,2,3,4-tetrahydroacridin-9-yl)amino)hexyl)acrylamide] | 19.1 ± 2 | 1.6 | 29.9 ± 1.8 | –
N#Cc1cccc(/C=C/C(=O)NCCCCCCNc2c3c(nc4ccccc24)CCCC3)c1 [Compound 29] | 5.1 ± 0.8 | 13.4 | 68.5 ± 13.6 | –
COc1ccc(/C=C/C(=O)NCCCCCCNc2c3c(nc4ccccc24)CCCC3)c(OC)c1OC [Compound 31, (E)-N-(6-((1,2,3,4-tetrahydroacridin-9-yl)amino)hexyl)-3–(2,3,4-trimethoxyphenyl)acrylamide] | 24.1 ± 8.1 | 0.3 | 8.1 ± 2 | –
COc1cc(/C=C/C(=O)NCCCCCCNc2c3c(nc4ccccc24)CCCC3)cc(OC)c1OC [Compound 32, (E)-N-(6-((1,2,3,4-tetrahydroacridin-9-yl)amino)hexyl)-3–(3,4,5-trimethoxyphenyl)acrylamide] | 6.4 ± 2.2 | 0.5 | 3.4 ± 0.4 | –
O=C(/C=C/c1cccc(O)c1)NCCCCCCNc1c2c(nc3ccccc13)CCCC2 [Compound 33, (E)-3-(3-hydroxyphenyl)-N-(6-((1,2,3,4-tetrahydroacridin-9-yl)amino)hexyl)acrylamide] | 6.4 ± 2.1 | 3.9 | 25.1 ± 6.5 | –
O=C(/C=C/c1ccc(O)cc1)NCCCCCCNc1c2c(nc3ccccc13)CCCC2 [Compound 34, (E)-3-(4-hydroxyphenyl)-N-(6-((1,2,3,4-tetrahydroacridin-9-yl)amino)hexyl)acrylamide] | 2.2 ± 0.3 | 19.8 | 43.5 ± 9.3 | –
COc1cc(/C=C/C(=O)NCCCCCCNc2c3c(nc4ccccc24)CCCC3)ccc1OCc1ccccc1 [Compound 36] | 86.3 ± 30 | 0.3 | 29.8 ± 7.3 | –
COc1cc(/C=C/C(=O)NCCCCCCNc2c3c(nc4ccccc24)CCCC3)ccc1OCc1ccc(Cl)cc1 [Compound 37] | 104 ± 26.4 | – | 22.6 ± 7.1 | –
COc1cc(/C=C/C(=O)NCCCCCCNc2c3c(nc4ccccc24)CCCC3)ccc1OCc1ccc(C)cc1 [Compound 38] | 128 ± 13.3 | 0.5 | 58.4 ± 7.5 | –
